The text below walks through data of paper PMC6317055, “Metabolites from the Paracel Islands Soft Coral Sinularia cf. molesta” (Marine Drugs, 2018).

Series [1] deals with T1, protein tyrosine phosphatase 1B (PTP1B) (Homo sapiens, UniProt P18031).
T1 sequence (P18031 1-435): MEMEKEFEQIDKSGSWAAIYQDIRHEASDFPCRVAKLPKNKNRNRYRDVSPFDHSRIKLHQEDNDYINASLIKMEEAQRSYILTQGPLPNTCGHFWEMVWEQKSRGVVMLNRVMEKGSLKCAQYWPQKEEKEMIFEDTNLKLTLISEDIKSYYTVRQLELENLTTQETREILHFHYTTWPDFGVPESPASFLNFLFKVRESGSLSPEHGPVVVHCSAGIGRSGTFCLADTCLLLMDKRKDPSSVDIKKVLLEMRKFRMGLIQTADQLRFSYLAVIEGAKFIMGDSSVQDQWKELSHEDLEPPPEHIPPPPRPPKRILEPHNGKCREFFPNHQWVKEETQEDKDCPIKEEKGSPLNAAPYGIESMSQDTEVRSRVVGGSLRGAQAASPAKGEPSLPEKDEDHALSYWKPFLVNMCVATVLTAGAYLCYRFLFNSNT
In words: PTP1B inhibitory assay, pNPP method.
Procedure: These isolated sesquiterpenes were also assessed for their inhibitory activities against PTP1B.

Series [2] can be described thus: Cytotoxicity assay, SRB method, HCT-116. The series is classed as cell-based. The settings on record: human, HCT-116 cells (human colon carcinoma); HCT-116, SRB method, adriamycin positive control; read-out: cytotoxicity IC50 against HCT-116 cell lines. On the procedure:
(§1) Considering the reported cytotoxic activities of some sesquiterpenes, cyclopentenone derivatives, and cembranoid diterpenes, all the compounds were evaluated for their cytotoxic activities against HeLa (human cervical carcinoma), HCT-116 (human colon carcinoma), BEL-7402 (human hepatocellular carcinoma), K562 (human leukemia), and Jurkat (human acute leukemia T) tumor cell lines.
A general note: The SRB assay estimates cell density from bound dye.

Series [3] in a line: Cytotoxicity assay, SRB method, HeLa. Type of series: cell-based. The settings on record: human, adriamycin positive control, read-out: cytotoxicity IC50 against HeLa cell lines. On the procedure: as §1
The mark [4] stands for this setting: HeLa cells (human cervical carcinoma).

Structures are written as SMILES.

Regarding `CC(C)C1=CC2=C(C(=O)C[C@@]2(C)O)[C@H](C)CC1` [Compound 4, Molestin C], the IC50 in series [1] was 218 µM.
Same read-out and setting: in the case of `COC12CCC(C)(O)C1=CC(=O)CCC2C` (stereo not shown) [Compound 5, Molestin D] it was 344 µM; in that of `C=C/C(C)=C\CCC(C)Cc1cc(C(=O)O)co1` (stereo not shown) [Compound 8, (5′Z)-5-(2′,6′-Dimethylocta-5′,7′-dienyl)-furan-3-carboxylic acid], 1.24 µM.
In the case of `C=C(C)C1CC2=C(C(=O)OC)C=C(O2)C(O)C(C)(O)CC2C=C(C(=O)O2)C(OC(C)=O)C1` (stereo not shown) [Compound 14, Molestin E], the figures for the IC50 in series [2] and in series [3] were 8.37 µM and 5.26 µM, respectively.
Regarding `C=C(C)[C@@H]1C/C=C2\C(=O)O[C@@H](C[C@]3(C)CC(=O)[C@H](CC(=O)C1)O3)[C@@H]2O` [Compound 17, 5-epi-sinuleptolide], the IC50 in series [3] (setting [4]) stood at 6.66 µM.
For `C=C(C)[C@@H]1C/C=C2\C(=O)O[C@@H](C[C@]3(C)CC(=O)[C@@H](CC(=O)C1)O3)[C@@H]2O` [Compound 18, sinuleptolide], the IC50 in series [3] (setting [4]) came out at 6.1 µM.

In general, IC50 refers to the concentration needed to halve the response being measured.
